Experimental data reported in paper PMC6570502 (Chembiochem : a European journal of chemical biology, 2019).
Changes are numbered by the printed parent chain.

Tests used:
KDM4A N198G mutant = molecular target: T1, KDM4A N198G mutant (Homo sapiens, UniProt O75164, N198G); assay: MALDI demethylase assay, H3K9me3 substrate peptide, N198G mutant; format: biochemical
T1 sequence (O75164 1-1064 N198G): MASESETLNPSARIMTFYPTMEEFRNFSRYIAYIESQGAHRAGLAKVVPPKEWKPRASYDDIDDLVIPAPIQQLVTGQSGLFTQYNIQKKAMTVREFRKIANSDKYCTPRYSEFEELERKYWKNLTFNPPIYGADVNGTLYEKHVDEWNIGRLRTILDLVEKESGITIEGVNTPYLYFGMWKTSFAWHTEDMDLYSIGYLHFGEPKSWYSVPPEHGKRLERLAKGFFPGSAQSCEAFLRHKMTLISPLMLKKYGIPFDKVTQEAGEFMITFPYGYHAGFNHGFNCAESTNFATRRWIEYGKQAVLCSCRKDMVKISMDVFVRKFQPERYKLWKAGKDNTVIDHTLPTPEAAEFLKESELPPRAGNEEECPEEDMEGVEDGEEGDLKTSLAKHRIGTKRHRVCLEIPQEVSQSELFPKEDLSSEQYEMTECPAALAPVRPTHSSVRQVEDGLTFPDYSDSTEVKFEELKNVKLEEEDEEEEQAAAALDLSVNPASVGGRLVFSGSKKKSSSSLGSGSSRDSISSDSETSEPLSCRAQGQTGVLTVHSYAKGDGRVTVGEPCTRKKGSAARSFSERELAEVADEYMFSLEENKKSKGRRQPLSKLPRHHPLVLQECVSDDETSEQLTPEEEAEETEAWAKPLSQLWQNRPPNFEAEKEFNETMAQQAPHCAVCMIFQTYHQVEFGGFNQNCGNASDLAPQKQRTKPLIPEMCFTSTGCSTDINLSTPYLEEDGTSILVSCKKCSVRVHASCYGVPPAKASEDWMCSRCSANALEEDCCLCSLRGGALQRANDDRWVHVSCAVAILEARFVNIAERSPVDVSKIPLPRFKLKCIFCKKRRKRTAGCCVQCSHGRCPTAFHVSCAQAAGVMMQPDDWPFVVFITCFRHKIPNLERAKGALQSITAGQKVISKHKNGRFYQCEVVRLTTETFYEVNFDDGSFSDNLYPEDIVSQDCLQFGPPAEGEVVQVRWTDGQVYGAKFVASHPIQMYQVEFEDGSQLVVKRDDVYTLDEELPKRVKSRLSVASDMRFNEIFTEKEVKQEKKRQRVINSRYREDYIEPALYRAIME

KDM4A N198A mutant = molecular target: T2, KDM4A N198A mutant (Homo sapiens, UniProt O75164, N198A); assay: MALDI demethylase assay, H3K9me3 substrate peptide, N198A mutant; format: biochemical
T2 sequence (O75164 1-1064 N198A): T1 sequence (O75164 1-1064 N198G) with G198A

[1] = scaffold test under the optimized assay conditions (50 μM 2KG), Figure S7
[2] = 100 μM compound, 50 μM 2KG, MALDI-MS

Row | Structure (SMILES) | inhibition of demethylase activity (KDM4A N198G mutant; [1]) | inhibition of demethylase activity (KDM4A N198A mutant; [1]) | inhibition of demethylase activity (KDM4A N198G mutant; [2]) | inhibition of demethylase activity (KDM4A N198A mutant; [2])
1 | O=C(O)c1ccc(O)c2ncccc12 [IOX1, 5-carboxy-8-hydroxyquinone] | inhibited | inhibited |  | 
2 | O=C(O)CNC(=O)C(=O)O [compound 2, N-oxalylglycine] | inhibited | inhibited | significantly inhibited | significantly inhibited
